Patent US20200270225A1, “Chiral Diacylhydrazine Ligands for Modulating the Expression of Exogenous Genes via an Ecdysone Receptor Complex” (Intrexon Corporation, priority 2007, published 2020)

Key:
[1] = tested on: IL-12 transgene in transduced AdDCs; assay: In vitro IL-12 transgene induction by transduced AdDCs from healthy volunteers; format: cell-based, human; details: observed in 2 out of the 3 AdDC preparations
Description: Immature DCs are harvested, counted and tested for viability. Approximately 6-7×10^7 DCs are transduced with the adenoviral vector at the optimal multiplicity of infection (the optimal MOI, between 500 and 1000, to be finalized) for the optimal viral adsorption time (between 2 h and 4 h, to be finalized). After transduction, the cells are washed repeatedly to remove any unadsorbed viral particles. Aliquots are set aside for sterility, endotoxin, mycoplasma, DC Phenotype and IL-12 transgene induction assays. The target dose of 5×10^7 cells is held at 4° C. in saline until release testing is complete.
The in vitro testing of the IL-12 transgene induction by the transduced AdDCs takes a minimum of two days for the results to be available and therefore IL-12 production in response to (R)-2-ethyl-3-methoxy-benzoic acid N′-(1-tert-butyl-butyl)-N′-(3,5-dimethyl-benzoyl)-hydrazide will not be a release criterion for the intratumoral injection of the AdDCs. […] Therefore, the in vitro IL-12 induction results are used for analysis of the treatment outcome. As such, the transduced AdDCs are used for injection after viral transduction and washing. Any left-over untransduced and transduced DCs are cryopreserved for future analysis as necessary.

[2] = tested on: Caco-2 cell monolayers; assay: Bidirectional permeability through Caco-2 cell monolayers; format: in vitro ADME
Description: The test compounds were prepared as 5 μM in HBSSg with a maximum DMSO concentration <1%. Confluent monolayers of Caco-2 cells, 21 to 28 days old were prepared. The receiver well was prepared with 1% BSA in modified Hanks buffer HBSSg, and the apical and basolateral sides of Caco-2 cell were maintained at pH 7.4±0.2. Two monolayers were dosed in each direction (N=2): the apical side was dosed for (A→B) assessment and the basolateral side was dosed for (B→A) assessment. The test compound concentration was measured for both apical and basolateral sides at a time point of 120 minutes using a generic LC/MS/MS method with a minimum 4 point calibration curve. The values in FIG. 13 are: the percent recovery of the test compound from Transwell® wells containing Caco-2 cell monolayers; apparent permeability (Papp) in both directions; efflux ratio (Papp B→A)/(Papp A→B); absorption potential of a test compound classified as either Low or High; efflux classification is significant when efflux ≥3.0 and Papp (B→A)≥1.0×10-6 cm/s. […] Also, the efflux rate for the R enantiomer is lower.

[3] = tested on: RheoSwitch® Therapeutic System (RTS) gene expression; assay: In vivo induction of RTS SEAP reporter in electroporated mice; parameters: species or system C57BL6 mice; details: intraperitoneal injection 26 nmol/mouse; monitored seventeen days
Source text: The wild-type D, E, and F domains from spruce budworm Choristoneura fumiferana EcR (“CfEcR-DEF”; SEQ ID NO: 1) were mutated [V107 (gtt)→1107 (att) and Y127 (tac)→E127 (gag)] and fused to a GAL4 DNA binding domain (“Gal4DBD1-147”; SEQ ID NO: 2). Helices 1 through 8 of the EF domains from Homo sapiens RXRPβ (“HsRXRβ-EF”; nucleotides 1-465 of SEQ ID NO: 4) and helices 9 through 12 of the EF domains of Locusta migratoria Ultraspiracle Protein (“LmUSP-EF”; nucleotides 403-630 of SEQ ID NO: 5) were fused to the transactivation domain from VP16 (“VP16AD”; SEQ ID NO: 6), which regulates a reporter gene human secreted alkaline phosphatase (“SEAP”, SEQ ID NO: 12) that was placed under the control of a 6xGAL4 response element (SEQ ID NO: 13) and a transthyretin promoter (SEQ ID NO: 14). Each element of the gene switch was on a separate plasmid. Receptor expression was under the control of a CMV promoter (SEQ ID NO: 15). Induction was evaluated by the amount of reporter protein expressed in the presence of ligand.
SEAP expression in serum of mice was evaluated after electroporation of the gene switch into mouse quadriceps. Mice were anesthetized with 2 μL/g of a mixture of ketamine (100 mg/mL) and xylazine (20 mg/mL). Animals were then shaved, DNA vectors injected into the muscle in a volume of 2×50 μL polyglutamic acid (12 mg/mL water), electrode conductivity gel applied, and an electrode caliber (1 cm×1 cm; model 384) was placed on hind leg. The muscle was electroporated with 200 V/cm, 8 times, for 20 msec/pulse, at 1 sec time intervals. The transverse electrical field direction was reversed after the animals received half of the pulses. Electroporation was performed with an ECM 830 electroporator from BTX Molecular Delivery Systems.
[…] In other experiments the concentration of ligand was decreased to 26 nmol/50 μL of DMSO/mouse. […]
Mouse serum was obtained by centrifugation of blood acquired by retroorbital bleeding with a small glass capillary tube. SEAP quantification was determined using a Clontech Great Escape chemiluminescence kit and by comparison with the Clontech SEAP standard. […]

SMILES | induced IL-12 expression level [1] [ng/million cells/24 h] | efflux rate, compared ([2]; Caco-2) | apparent permeability (Papp), compared ([2]; Caco-2, A→B and B→A, 5 μM, 120 minutes) | RTS gene reporter (SEAP) expression in mouse serum [3]
CCC[C@@H](N(NC(=O)c1cccc(OC)c1CC)C(=O)c1cc(C)cc(C)c1)C(C)(C)C [Example 1, (R)-3,5-Dimethyl-benzoic Acid N-(1-tert-butyl-butyl)-N′-(2-ethyl-3-methoxy-benzoyl)-hydrazide] | 80 | lower | more permeable than the racemate in both directions | induces substantial RTS gene reporter expression
CCCC(N(NC(=O)c1cccc(OC)c1CC)C(=O)c1cc(C)cc(C)c1)C(C)(C)C (racemic) [rac-1, rac-2-ethyl-3-methoxy-benzoic acid N′-(1-tert-butyl-butyl)-N′-(3,5-dimethyl-benzoyl)-hydrazide] |  |  |  | induces modest RTS gene reporter expression
